According to article PMC10974084, “Combination of Betulinic Acid Fragments and Carbonic Anhydrase Inhibitors—A New Drug Targeting Approach” (Pharmaceutics, 2024):
Read-outs that look alike come from different tables or passages of the source.

Tests used:
[1] = system: A2780 ovarian cancer cells; experiment: SRB cytotoxicity assay, A2780; type: cell-based; settings: Homo sapiens, read-out: IC50 A2780
Method: (§1) All of the compounds were dissolved in dimethyl sulfoxide (DMSO) to achieve a 20 mM stock solution. Cells were seeded in cell culture flasks 24 h before treatment. The treatment was performed for 24 h.
(§2) The cytotoxicity of the drugs was determined in 2D tumor models using sulforhodamine B (SRB) assays. Treatment started 24 h after seeding the tumor cells in 96-well plates as previously described.

[2] = system: MCF-7 cells; experiment: Cell cycle analysis, MCF-7; type: cell-based, human; settings: double the IC50 concentration
Method: (§3) Cell cycle analyses were performed as previously described.
(§4) Changes in the genetic material and the resulting mutations, which can affect the formation of tumors, usually occur during the proliferation process in the cell. A human cell passes through all four phases of this cell cycle within 20 h, with the set of its chromosomes varying between single and double. During apoptosis, fragmentation of DNA occurs along with an associated decrease in chromosome content. Fixation of cells with ethanol leads to permeabilization of the cell membrane and thus to loss of smaller DNA fragments, so that apoptotic cells contain less than the single set of chromosomes detected by a SubG1 peak. Given the different amounts of DNA in the cells and the proportional binding of propidium iodide to the DNA, the different fluorescence intensities can be used to infer the distribution of cells in the respective phases of the cell cycle.
The MCF-7 breast cancer cell line was used in the experiments. An untreated sample was also included in the cell cycle analysis as a control. The results are depicted in Figure 4.

[3] = system: A375 cells; experiment: Cell cycle analysis, A375; type: cell-based, human; settings: double the IC50 concentration
Method: as §3, §4
In addition, after 48 h of treatment, there was a decrease in the S and M phases for all treatments, which is similar to that noted after 24 h. […] As in the 24 and 48 h tests, there was a decrease in M- and S-phase cells and an increase in G1/G0 phase cells after 72 h compared with the untreated control. Several independent experiments by different groups show similar results with MCF-7 [42, 43, 44]. Due to a lack of DNA fragmentation in MCF-7 cells, the human melanoma cell line A375 was used as a second cell line for comparison (Figure 4d). […] The effect of compound 3 is even more pronounced with an incubation time of 48 or 72 h. An increase in the SubG1 peak was observed from 0.7% in the control to up to 60% after 72 h of treatment.

[4] = target: recombinant human carbonic anhydrase IX (Homo sapiens, UniProt Q16790); experiment: hCA IX esterase assay with p-nitrophenyl acetate; settings: for Ki relative to the unconjugated inhibitors: higher Ki than unconjugated inhibitors
Method: In this measurement, the enzymatically catalyzed hydrolysis of p-nitrophenyl acetate to p-nitrophenol was investigated. […] This was followed by measurement of the v-S-characteristics with inhibitor. […] For each run, 2 experimental series (biological replicate) were prepared simultaneously and measured for 10 min at a measurement interval of 8 s, also as a two-fold determination (technical replicate). […] The resulting reaction velocities, calculated from a calibration curve with p-nitrophenole under the same conditions, were plotted against the substrate concentration. The kinetic evaluation for competitive inhibition was then performed with the program GraphPad Prism.

[5] = system: A375 melanoma cells; experiment: SRB cytotoxicity assay, A375; type: cell-based; settings: Homo sapiens, read-out: IC50 A375
Method: as §1, §2

[6] = system: MCF-7 breast cancer cells; experiment: SRB cytotoxicity assay, MCF-7; type: cell-based; settings: Homo sapiens, read-out: IC50 MCF-7
Method: as §1, §2

[7] = system: MCF-7 cells; experiment: Annexin V / propidium iodide assay, MCF-7; type: cell-based, human; settings: double the IC50 concentration
Method: The Annexin V assays were performed as previously described.
Compounds 3, 5, and 9 were used to study cell death mechanisms and cell cycle analysis. A feature that can be used as it is only characteristic of apoptotic but not necrotic cells is Annexin V staining. During apoptosis, in addition to cell shrinkage, chromatin condensation, and the formation of apoptotic bodies, phosphatidylserine, which is originally inside the membrane, is translocated to the outside. There is a rapid change in phospholipid symmetry in the cell membrane, a process occurring so rapidly that the barrier function of the cell membrane is initially still present. The cellular protein Annexin V can bind to the displaced phosphatidylserine in the presence of calcium. To test for the presence of the cell membrane barrier, the non-membrane-permeable dye propidium iodide was added, which intercalates into the DNA. The flow cytometric data were divided into four areas (live cells, early and late apoptotic cells, and necrotic cells). Untreated cells were used as controls. The results are depicted in Figure 3. […] Even after 48 h, no significant difference between compound 3 and 5 was detected (55–60% live cells, 8% early apoptotic cells, 28–36% late apoptotic cells, 0.5–3% necrotic cells). […] Since both compounds are sulfonamides of betulin, the similar results are not surprising.

[8] = system: tumor cell lines (2D and 3D tumor models); experiment: Cytotoxicity summarised across tumor models; type: cell-based
Method: as §2
(§5) To determine cytotoxicity in the 3D tumor models, spheroid cytotoxicity assays were performed as previously described. The luciferase-expressing, breast cancer cell lines MDA-MB-231 and Hs578T and derived spheroids were cultivated in RPMI medium (Sigma-Aldrich, Taufkirchen, Germany) containing 10% fetal bovine serum (BioWest, Nuaillé, France) and 10% penicillin/streptomycin (Sigma-Aldrich) at 37 °C/5% CO2 in a humid atmosphere. For generation of single tumor spheroids, tumor cells resuspended in culture medium were seeded into 96-well plates, which were coated before with 0.7% agarose (SeaKem® GTG™ Agarose, Lonza, Basel, Switzerland). After the formation of spheroids (48 h), they were treated with serial dilutions of compounds. Measurements of luciferase activity were performed on day 7, after supplementation with D-luciferin (Perkin Elmer, Rodgau, Germany), on a Tecan Spark microplate reader (Tecan, Männedorf, Switzerland). Generation of dose-response curves and calculation of IC50 values including standard deviations were accomplished using GraphPad Prism8.

[9] = system: Hs578T spheroids; experiment: Spheroid cytotoxicity assay (luciferase), Hs578T; type: cell-based, human; settings: for IC50: read-out: IC50 Hs578T spheroids; for resistance of Hs578T spheroids versus MDA-MB-231 spheroids: difference of spheroid IC50 values
Method: as §5, with “The luciferase-expressing, breast cancer cell lines MDA-MB-231 and Hs578T and derived spheroids were cultivated in RPMI medium (Sigma-Aldrich, Taufkirchen, Germany) containing 10% fetal bovine serum (BioWest, Nuaillé, France) and 10% penicillin/streptomycin (Sigma-Aldrich) at 37 °C/5% CO2 in a humid atmosphere.” left out
(§6) Since the tumor cells stably express luciferase, analysis of spheroid growth and response to therapy is accomplished by measurement of bioluminescent signal intensity.

[10] = system: MDA-MB-231 spheroids; experiment: Spheroid cytotoxicity assay (luciferase), MDA-MB-231; type: cell-based, human; settings: read-out: IC50 MDA-MB-231 spheroids
Method: as §5, with “The luciferase-expressing, breast cancer cell lines MDA-MB-231 and Hs578T and derived spheroids were cultivated in RPMI medium (Sigma-Aldrich, Taufkirchen, Germany) containing 10% fetal bovine serum (BioWest, Nuaillé, France) and 10% penicillin/streptomycin (Sigma-Aldrich) at 37 °C/5% CO2 in a humid atmosphere.” left out
as §6

[11] = A2780, SRB assay, 96 h incubation, mean ± SD
[12] = A-375, SRB assay, 96 h incubation, mean ± SD
[13] = MCF7, SRB assay, 96 h incubation, mean ± SD
[14] = Homo sapiens; SRB assays, A375, MCF-7, A2780; read-out: IC50 values (range over cell lines of Table 1)
[15] = Homo sapiens; read-out: cytotoxicity range in 2D and 3D tumor models
[16] = Homo sapiens, Hs-578T, 168 h, 7 days of treatment, 3 independent experiments
[17] = Homo sapiens, MDA-MB-231, 168 h, 7 days of treatment, 3 independent experiments
[18] = Homo sapiens, MDA-MB-231, 168 h
[19] = 7 days of treatment, 3 independent experiments

C=C(C)C1CCC2(C(=O)NCCS(N)(=O)=O)CCC3(C)C(CCC4C5(C)CCC(OC(C)=O)C(C)(C)C5CCC43C)C12 (stereo not drawn) [Compound 3, (3β)-28-{[2-(Aminosulfonyl)-ethyl]-amino}28-oxolup-20(29)-en-3-yl Acetate]
IC50 [1, 11]: 10.4 ± 0.8 µM
cells in SubG1 phase ([2]; MCF-7, 72 h): 8.1%
cells in G1/G0 phase ([3]; A375, 24 h): 46.9%
cells in M phase ([3]; A375, 24 h): 15.8%
cells in S phase ([3]; A375, 24 h): 21.2%
cells in SubG1 phase ([3]; A375, 24 h): 11.9%
SubG1 peak ([3]; A375, 72 h, control 0.7%): up to 60%
Ki [4]: 1.04 ± 0.39 µM
Ki relative to the unconjugated inhibitors [4]: approximately 10 fold
IC50 [5, 12]: 6.4 ± 0.7 µM
IC50 [6, 13]: 7.5 ± 0.7 µM
late apoptotic cells ([7]; MCF-7, 24 h): 16%
early apoptotic cells ([7]; MCF-7, 48 h): 8%
early apoptotic cells ([7]; MCF-7, 72 h): 9%
late apoptotic cells ([7]; MCF-7, 72 h): 53%
live cells ([7]; MCF-7, 72 h): 34%
necrotic cells ([7]; MCF-7, 72 h): 4.5%
IC50 [8, 14]: 6.4 to 11.4 µM
IC50 [8, 15]: 6.4 to 30.1 µM

C=C(C)C1CCC2(COC(=O)CCC(=O)O)CCC3(C)C(CCC4C5(C)CCC(OC(C)=O)C(C)(C)C5CCC43C)C12 (stereo not drawn) [Compound 4, 4-{[(3beta)-3-(Acetyloxy)-lup-20(29)-en-28-yl]-oxy}-4-oxobutanoic Acid]
IC50 [1, 11]: 12.3 ± 3.9 µM
IC50 [5, 12]: 12.1 ± 1.5 µM
IC50 [6, 13]: 9.8 ± 0.6 µM
melting point: 122 to 125 °C

C=C(C)C1CCC2(COC(=O)CCC(=O)NCCS(N)(=O)=O)CCC3(C)C(CCC4C5(C)CCC(OC(C)=O)C(C)(C)C5CCC43C)C12 (stereo not drawn) [Compound 5, (3β)-3-(Acetyloxy)-lup-20(29)-en-28-yl 4-{[2-(aminosulfonyl)-ethyl]amino}-4-oxobutanoate]
IC50 [1, 11]: 11.4 ± 1.4 µM
cells in G1/G0 phase ([2]; MCF-7, 48 h): 83.9%
cells in M phase ([2]; MCF-7, 48 h): 5.8%
cells in S phase ([2]; MCF-7, 48 h): 1.8%
cells in SubG1 phase ([2]; MCF-7, 48 h): 8.1%
cells in SubG1 phase ([2]; MCF-7, 72 h): 12.1%
Ki [4]: 1.1 ± 0.31 µM
Ki relative to the unconjugated inhibitors [4]: approximately 10 fold
IC50 [5, 12]: 9.4 ± 0.5 µM
IC50 [9, 16]: 30.1 ± 0.7 µM
resistance of Hs578T spheroids versus MDA-MB-231 spheroids [9]: only about three-fold differences
IC50 [6, 13]: 8.6 ± 0.7 µM
late apoptotic cells ([7]; MCF-7, 24 h): 16%
early apoptotic cells ([7]; MCF-7, 48 h): 8%
effect on cell viability (Annexin V) ([7]; MCF-7, 72 h): comparably strong effect
IC50 [8, 14]: 6.4 to 11.4 µM
IC50 [8, 15]: 6.4 to 30.1 µM
IC50 [10, 17]: 10.3 ± 2.7 µM

Nc1nnc(S(N)(=O)=O)s1 [Compound 6, 5-Amino-1,3.4-thiadiazole-2-sulfonamide]
IC50 [1, 11]: > 100 µM
IC50 [5, 12]: > 100 µM
IC50 [6, 13]: > 100 µM

NS(=O)(=O)c1nnc(NC(=O)CCC(=O)O)s1 [Compound 7, 4 {[5-(Amino sulfonyl)-1,3,4-thiadiazol-2-yl]-amino}-4-oxobutanoic Acid]
IC50 ([1]; A2780, 96 h): > 100 µM
IC50 ([5]; A-375, 96 h): > 100 µM
IC50 ([9]; Homo sapiens, Hs-578T, 168 h): > 100 µM
IC50 ([6]; MCF7, 96 h): > 100 µM
IC50 [10, 18]: > 100 µM

NS(=O)(=O)c1nnc(NC(=O)CCC(=O)NCCOCCO)s1 [Compound 8, N-[5-(Aminosulfonyl)-1,3,4-thiadiazol-2-yl]-N’-[2-(2-hydroxyethoxy)-ethyl]-succinamide]
IC50 [1, 11]: > 100 µM
Ki [4]: 0.146 µM
IC50 [5, 12]: > 100 µM
IC50 [9, 16]: > 100 µM
IC50 [6, 13]: > 100 µM
IC50 [10, 17]: > 100 µM

C=C(C)C1CCC2(COC(=O)CCC(=O)Nc3nnc(S(N)(=O)=O)s3)CCC3(C)C(CCC4C5(C)CCC(OC(C)=O)C(C)(C)C5CCC43C)C12 (stereo not drawn) [Compound 9, (3β)-3-(Acetyloxy)-lup-20(29)-en-28-yl-4-{[5-(aminosulfonyl)-1,3,4-thiadiazol-2-yl]-amino}-4-oxobutanoate]
IC50 ([1]; A2780, 96 h): 8.7 ± 2 µM
cells in SubG1 phase ([2]; MCF-7, 72 h): 6.5%
Ki [4]: 1.25 ± 0.25 µM
Ki relative to the unconjugated inhibitors [4]: approximately 10 fold
IC50 ([5]; A-375, 96 h): 7.2 ± 0.6 µM
IC50 ([9]; Homo sapiens, Hs-578T, 168 h): 28.4 ± 0.3 µM
resistance of Hs578T spheroids versus MDA-MB-231 spheroids [9]: only about three-fold differences
IC50 ([6]; MCF7, 96 h): 6.2 ± 0.2 µM
effect on cell survival compared to untreated control ([7]; MCF-7, 24 h): no difference
effect on cell viability (Annexin V) ([7]; MCF-7, 72 h): comparatively smaller decrease in cell viability
IC50 ([8]; Homo sapiens, read-out: cytotoxicity range in 2D and 3D tumor models): 6.4 to 30.1 µM
IC50 [10, 18]: 8.1 ± 1.4 µM

C=C(C)C1CCC2(C(=O)NCCOCCO)CCC3(C)C(CCC4C5(C)CCC(OC(C)=O)C(C)(C)C5CCC43C)C12 (stereo not shown) [Compound 10]
IC50 [1, 11]: 9.5 ± 0.9 µM
IC50 [5, 12]: 4.3 ± 0.2 µM
IC50 [6, 13]: 5.9 ± 0.2 µM
melting point: 205 °C

C=C(C)C1CCC2(C(=O)NCCOCCOC(=O)CCC(=O)O)CCC3(C)C(CCC4C5(C)CCC(OC(C)=O)C(C)(C)C5CCC43C)C12 (stereo not shown) [Compound 11]
IC50 [1, 11]: 12.3 ± 1.5 µM
IC50 [5, 12]: 10.5 ± 0.6 µM
IC50 [6, 13]: 7.3 ± 0.4 µM
melting point: 78 to 82 °C

C=C(C)C1CCC2(C(=O)NCCOCCOC(=O)CCC(=O)Nc3nnc(S(N)(=O)=O)s3)CCC3(C)C(CCC4C5(C)CCC(OC(C)=O)C(C)(C)C5CCC43C)C12 (stereo not shown) [Compound 12]
IC50 [1, 11]: 35.1 ± 3.4 µM
reduction of hCA IX activity ([4]; 10 µM of the compound, p-nitrophenyl acetate): 40%
remaining activity at 10 µM ([4]; read-out: residual activity (r.a.) of hCA IX): 60%
IC50 [5, 12]: > 100 µM
IC50 [9, 16]: > 100 µM
IC50 [6, 13]: > 100 µM
melting point: 92 to 94 °C
IC50 [10, 17]: > 100 µM

NS(=O)(=O)c1ccc(NC(=O)Nc2ccc(F)cc2)cc1 [Compound U-104, reference compound]
IC50 [9, 19]: 83.9 ± 12.4 µM
IC50 [10, 19]: 33.5 ± 7.6 µM
